# According to patent publication EP4549424A1, “NEW LITHIUM EXTRACTING AGENT AND LIQUID ORGANIC MIXTURE THEREOF, AND METHOD FOR EXTRACTING LITHIUM BY MEANS OF EXTRACTION” (Beijing Salt Lake Technology Development Company Limited, priority 2022, dated 2024):
# Read-outs that look alike come from different tables or passages of the source.
# Legend:
# [1] = Liquid-liquid extraction from aqueous lithium-containing solution, ICP detection: potassium; settings: organic phase and phase ratio per example;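 further: analysis by ICP optical emission spectrometry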
# [2] = Liquid-liquid extraction from aqueous lithium-containing solution, ICP detection: sodium;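 further: sodium measured by inductively coupled plasma optical emission spectrometry in the diluted aqueous phase left after shaking with the organic phase and phase separation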
# [3] = Liquid-liquid extraction from aqueous lithium-containing solution, ICP detection: lithium;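 further: component concentrations in the aqueous phase were measured by inductively coupled plasma optical emission spectrometry after shaking and phase separation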
# [4] = pH of aqueous phase after extraction or stripping
# [5] = room temperature; public literature (www.chemicalbook.com; J. Chem. Eng. Data 2008, 53, 8, 1996-1998); cited from earlier work
# physchem = experiment: physchem
# Experimental: The solution loss rate is evaluated through solubility in water.
# [6] = pH 11.48
# [7] = pH 11.48; remark: listed apart in the source
# [8] = feed B7 (cLi 0.833, cNa 55.60, cK 5.37 g/L, pH 12.05), 26°C
# [9] = feed B7 (cLi 0.833, cNa 55.60, cK 5.37 g/L, pH 12.05), 26°C, organic phase and phase ratio per example
# [10] = feed B1 (cLi 0.807, cNa 56.12 g/L, pH 11.48), organic phase and phase ratio per example
# [11] = feed B3 (cLi 0.937, cNa 119.10, cK 43.03 g/L, pH 9.60), organic phase and phase ratio per example
compound,measurement,setting,value
2-hydroxy-5-methoxyacetophenone [Example 30],extraction rate for potassium ions,[1]; [8],7.08%
same,extraction rate for sodium ions,[2]; [9],10.86%
same,extraction rate for lithium ions,[3]; [9],60.26%
same,separation factor of Li/Na,[3]; [9],12.4
same,"pH, remaining aqueous phase R1",[4]; feed B7 (pH 12.05),10.30
2-hydroxy-2-phenylacetophenone [Example 41],extraction rate for sodium ions,[2]; [10],11.8%
same,extraction rate for lithium ions,[3]; [10],69.3%
same,separation factor of Li/Na,[3]; [10],16.8
same,"pH, remaining aqueous phase R1",[4]; feed B1 (pH 11.48),10.1
O=C(CC(=O)C(F)(F)F)c1ccccc1 [benzoyltrifluoroacetone],solubility in pure water,[5],240 µg/mL
CCCCCCCCOc1cc(O)c(C(=O)c2ccccc2)cc1[N+](=O)[O-] [2-hydroxy-4-octyloxy-5-nitrodibenzophenone],solubility in pure water,physchem,10 µg/mL
"O=C(c1ccccc1)c1cc([N+](=O)[O-])c(OCc2ccccc2)cc1O [Example 12, 4-benzyloxy-5-nitro-2-hydroxydibenzophenone]",extraction rate for potassium ions,"[1]; feed B3 (cLi 0.937, cNa 119.10, cK 43.03 g/L, pH 9.60)",8.3%
same,extraction rate for sodium ions,[2]; [11],10.1%
same,extraction rate for lithium ions,[3]; [11],85.7%
same,separation factor of Li/K,[3]; [11],66.0
same,separation factor of Li/Na,[3]; [11],53.4
same,"pH, remaining aqueous phase R1",[4]; feed B3 (pH 9.60),8.66
CCCCCCCCOc1ccc(C(=O)c2ccccc2)c(O)c1[N+](=O)[O-] [4-octyloxy-3-nitro-2-hydroxydibenzophenone],solubility in pure water,physchem,10 µg/mL
"O=C(c1ccccc1)c1ccc(O)cc1O [2,4-dihydroxydibenzophenone]",solubility in pure water,[5],700 µg/mL
2-hydroxydibenzophenone [Example 1],extraction rate for sodium ions,[2]; pH 11.48,10%
same,"cNa, remaining aqueous phase R1",[6],50.50 g/L
same,extraction rate for lithium ions,[3]; pH 11.48,68.2%
same,separation factor of Li/Na,[3]; pH 11.48,19.2
same,"cLi, remaining aqueous phase R1",[7],0.257 g/L
same,"pH, remaining aqueous phase R1",[4]; feed B1 (pH 11.48),10.12
2-hydroxy-5-fluoroacetophenone [Example 40],"cK, remaining aqueous phase R1",[1]; [8],4.86 g/L
same,extraction rate for potassium ions,[1]; [8],9.5%
same,"cNa, remaining aqueous phase R1",[2]; [9],49.81 g/L
same,extraction rate for sodium ions,[2]; [9],10.4%
same,"cLi, remaining aqueous phase R1",[3]; [9],0.417 g/L
same,extraction rate for lithium ions,[3]; [9],50%
same,separation factor of Li/Na,[3]; [9],8.6
COc1ccc(C(=O)c2ccccc2)c(O)c1 [2-hydroxy-4-methoxydibenzophenone],solubility,physchem; water,< 1000 µg/mL
CCCCCOc1ccc(C(=O)c2ccccc2)c(O)c1 [4-pentyloxy-2-hydroxydibenzophenone],solubility in pure water,physchem,50 µg/mL
